According to PMC12471299, “Secondary Metabolites of the Marine Sponge-Derived Fungus Aspergillus subramanianii 1901NT-1.40.2 and Their Antimicrobial and Anticancer Activities” (Marine Drugs, 2025):
Like-named read-outs stand apart in the source and are kept apart here.

What was measured:
[1] = tested on: MCF-10A breast epithelial cells; assay: Cell viability assay (MTT); format: cell-based, human; details: MCF10A
Source text: (§1) Rat cardiomyocyte H9c2 cells were kindly provided by Prof. Dr. Gunhild von Amsberg from the Martini-Klinik Prostate Cancer Center, University Hospital Hamburg-Eppendorf, Hamburg, Germany. The human HaCaT keratinocyte cell line was kindly provided by Prof. N. Fusenig (Cancer Research Centre, Heidelberg, Germany). Non-cancerous human breast epithelial MCF-10A cells were kindly provided by Dr. Irina Zhitnyak (N. N. Blokhin National Medical Research Center of Oncology, Moscow, Russia). Human breast cancer MCF-7 HTB-22 and MDA-MB-231 cells were obtained from the ATTC (Manassas, VA, USA).
(§2) H9c2 and HaCaT cells were cultured in DMEM with 10% fetal bovine serum and 1% penicillin/streptomycin (BioloT, St. Petersburg, Russia). MCF-7 and MDA-MB-231 cells were cultured in MEM (BioloT, St. Petersburg, Russia) with 10% fetal bovine serum (FBS) and 1% penicillin/streptomycin (BioloT, St. Petersburg, Russia). MCF 10A cells were cultured in DMEM F12 medium (BioloT, St. Petersburg, Russia) supplemented with 20% FBS, 20 ng/mL hrEGF (Sci-Store, Moscow, Russia), and 1% penicillin/streptomycin (BioloT, St. Petersburg, Russia). All cells were cultured at 37 °C in a humidified atmosphere containing 5% CO2.
(§3) H9c2 cells were seeded at a concentration of 3 × 10^3 cells/well. MCF-10A, MCF-7, and MDA-MB-231 cells were seeded at 5 × 10^3 cells/well, and HaCaT cells were seeded at 1 × 10^4 cells/well. The experiments were initiated after 24 h.
(§4) Compounds at concentrations up to 100 µM were added to the wells for 24h or 48 h, and the viability of the cells was measured using an MTT (3-(4,5-dimethylthiazol-2-yl)-2,5-diphenyltetrazolium bromide) assay, which was performed according to the manufacturer’s instructions (Sigma-Aldrich, Munich, Germany). […] DMSO was used as a control. The results are presented as percentages of the control data.

[2] = Cell viability assay (MTT); format: cell-based, human; details: human, read-out: Cytotoxicity IC50
Source text: as §1, §2, §3, §4

[3] = tested on: MDA-MB-231 breast cancer cells; assay: Cell viability assay (MTT); format: cell-based, human
Source text: as §1, §2, §3, §4

HaCaT keratinocytes = assay: Cell viability assay (MTT); format: cell-based, human
Source text: as §1, §2, §3, §4

[4] = tested on: MCF-7 breast cancer cells; assay: Cell viability assay (MTT); format: cell-based, human
Source text: as §1, §2, §3, §4

Candida albicans KMM 455 [5] = assay: Biofilm formation assay (MTT); format: cell-based
Procedure: (§5) The Gram-positive bacterial Staphylococcus aureus ATCC 21027, Gram-negative bacterial Escherichia coli VKPM (B-7935), and yeast-like fungal Candida albicans KMM 455 strains were fermented on solid medium Mueller Hinton broth with agar (16.0 g/L) in a Petri dish at 37 °C for 24 h. The antimicrobial activity of the compound was tested at concentrations ranging from 100 µM and lower. The effect of the compound on bacterial growth was estimated as described by. Gentamicin and amphotericin B were used as positive controls against S. aureus, E. coli, and C. albicans, and a 1% dimethyl sulfoxide (DMSO) solution in PBS was used as a negative control. The optical density of the bacterial suspension after 18 h was measured at λ = 620 nm. The effect of the compound on biofilm formation for 18 h was tested using MTT reagent (Sigma-Aldrich, St. Louis, MO, USA) in accordance with. The optical density of the obtained solution was measured at λ = 570 nm. A Multiskan FS spectrophotometer (Thermo Scientific Inc., Beverly, MA, USA) was used for both assays. The results were calculated as percentages of the control data and presented as minimal concentrations reduced by 50% of growth or biofilm formation (MIC50).

[6] = tested on: Escherichia coli VKPM (B-7935); assay: Biofilm formation assay (MTT); format: cell-based
Procedure: as §5

[7] = tested on: Staphylococcus aureus ATCC 21027; assay: Biofilm formation assay (MTT); format: cell-based
Procedure: as §5

Candida albicans KMM 455 [8] = assay: Antimicrobial assay, growth inhibition (optical density); format: cell-based
Procedure: as §5

[9] = tested on: Escherichia coli VKPM (B-7935); assay: as above; format: cell-based
Procedure: as §5

[10] = tested on: Staphylococcus aureus ATCC 21027; assay: as above; format: cell-based
Procedure: as §5

[11] = Cell viability assay (MTT); format: cell-based, rat; details: rat, H9c2 cardiomyocytes, read-out: Cytotoxicity IC50
Source text: as §1, §2, §3, §4

H9c2 cardiomyocytes = assay: Cell viability assay (MTT); format: cell-based, rat
Source text: as §1, §2, §3, §4

With Cc1c(C)c(O)c2c(c1C)C(C)C(=O)OC2=O (stereo not shown) [Compound 4, sclerin] as the molecule, how does the cell viability ([1]; 24 h, 1.0 µM) read?
The cell viability was 90.8 ± 7.8 % of control.

What about the cell viability ([1]; 24 h, 10.0 µM) of the same molecule?
The cell viability was 88.6 ± 5.2 % of control.

What about the cell viability ([1]; 24 h, 100.0 µM) of the same molecule?
Its cell viability is 47.0 ± 3.2 % of control.

And the cell viability ([1]; 48 h, 1.0 µM)?
Its cell viability is 98.0 ± 4.0 % of control.

What about the cell viability ([1]; 48 h, 10.0 µM) of the same molecule?
Its cell viability is 96.8 ± 2.1 % of control.

And the cell viability ([1]; 48 h, 100.0 µM)?
The cell viability was 73.5 ± 1.1 % of control.

What about the IC50 at 24 h ([2]; HaCaT keratinocytes, 24 h) of the same molecule?
The IC50 at 24 h was no less than 100 µM.

And the IC50 at 48 h ([2]; HaCaT keratinocytes, 48 h)?
The IC50 at 48 h was no less than 100 µM.

What about the IC50 at 24 h ([2]; MCF-7 breast cancer cells, MCF-7, 24 h) of the same molecule?
Its IC50 at 24 h is greater than 100 µM.

And the IC50 at 48 h ([2]; MCF-7 breast cancer cells, MCF-7, 48 h)?
The IC50 at 48 h was greater than 100 µM.

What about the IC50 at 24 h ([2]; MCF-10A breast epithelial cells, MCF10A, 24 h) of the same molecule?
The IC50 at 24 h was 93.4 ± 3.5 µM.

What about the IC50 at 48 h ([2]; MCF-10A breast epithelial cells, MCF10A, 48 h) of the same molecule?
Its IC50 at 48 h is greater than 100 µM.

What about the IC50 at 24 h ([2]; MDA-MB-231 breast cancer cells, MDA-MB-231, 24 h) of the same molecule?
The IC50 at 24 h was greater than 100 µM.

What about the IC50 at 48 h ([2]; MDA-MB-231 breast cancer cells, MDA-MB-231, 48 h) of the same molecule?
Its IC50 at 48 h is 94.1 ± 3.2 µM.

And the cell viability ([3]; MDA-MB-231, 24 h, 1.0 µM)?
Its cell viability is 94.8 ± 4.2 % of control.

And the cell viability ([3]; MDA-MB-231, 24 h, 10.0 µM)?
Its cell viability is 102.7 ± 4.9 % of control.

And the cell viability ([3]; MDA-MB-231, 24 h, 100.0 µM)?
The cell viability was 63.1 ±1.6 % of control.

What about the cell viability ([3]; MDA-MB-231, 48 h, 1.0 µM) of the same molecule?
The cell viability was 94.3 ± 3.9 % of control.

And the cell viability ([3]; MDA-MB-231, 48 h, 10.0 µM)?
Its cell viability is 91.8 ± 7.5 % of control.

What about the cell viability ([3]; MDA-MB-231, 48 h, 100.0 µM) of the same molecule?
The cell viability was 47.1 ± 6.2 % of control.

And the cell viability (HaCaT keratinocytes; 24 h, 1.0 µM)?
Its cell viability is 100.2 ± 6.6 % of control.

What about the cell viability (HaCaT keratinocytes; 24 h, 10.0 µM) of the same molecule?
Its cell viability is 94.7 ± 5.0 % of control.

And the cell viability (HaCaT keratinocytes; 24 h, 100.0 µM)?
The cell viability was 49.5 ± 6.0 % of control.

And the cell viability (HaCaT keratinocytes; 48 h, 1.0 µM)?
Its cell viability is 96.4 ± 1.4 % of control.

What about the cell viability (HaCaT keratinocytes; 48 h, 10.0 µM) of the same molecule?
Its cell viability is 72.1 ± 11.1 % of control.

What about the cell viability (HaCaT keratinocytes; 48 h, 100.0 µM) of the same molecule?
Its cell viability is 51.5 ± 2.1 % of control.

And the cell viability ([4]; MCF-7, 24 h, 1.0 µM)?
Its cell viability is 104.3 ± 4.6 % of control.

And the cell viability ([4]; MCF-7, 24 h, 10.0 µM)?
The cell viability was 103.4 ± 5.4 % of control.

And the cell viability ([4]; MCF-7, 24 h, 100.0 µM)?
Its cell viability is 68.3 ± 4.5 % of control.

And the cell viability ([4]; MCF-7, 48 h, 1.0 µM)?
The cell viability was 88.5 ± 4.7 % of control.

What about the cell viability ([4]; MCF-7, 48 h, 10.0 µM) of the same molecule?
The cell viability was 95.9 ± 3.5 % of control.

And the cell viability ([4]; MCF-7, 48 h, 100.0 µM)?
Its cell viability is 74.1 ± 4.5 % of control.

And the “Biofilm formation, MIC50” value (Candida albicans KMM 455 [5]; C. albicans, 18 h)?
The value was greater than 100 µM.

What about the “prevention of C. albicans biofilm formation” value (Candida albicans KMM 455 [5]; at 100 µM) of the same molecule?
Its value is 20.22 ± 5.24%.

And the “Biofilm formation, MIC50” value ([6]; E. coli, 18 h)?
Its value is greater than 100 µM.

And the “effect on E. coli biofilm formation” value ([6]; at / up to 100 µM)?
Its value is “did not affect”.

And the “Biofilm formation, MIC50” value ([7]; S. aureus, 18 h)?
The value was greater than 100 µM.

And the “effect on S. aureus biofilm formation” value ([7]; at / up to 100 µM)?
The value was “did not affect”.

And the MIC50 (Candida albicans KMM 455 [8]; Candida albicans, KMM455, 18 h, C. albicans, 18 h)?
Its MIC50 is greater than 100 µM.

What about the “effect on C. albicans growth” value (Candida albicans KMM 455 [8]; at / up to 100 µM) of the same molecule?
Its value is “did not affect”.

And the MIC50 ([9]; Escherichia coli, 18 h, E. coli)?
The MIC50 was greater than 100 µM.

And the “effect on E. coli growth” value ([9]; at / up to 100 µM)?
Its value is “did not affect”.

What about the MIC50 ([10]; Staphylococcus aureus, ATCC21027, 18 h, S. aureus, 18 h) of the same molecule?
Its MIC50 is greater than 100 µM.

And the “effect on S. aureus growth” value ([10]; at / up to 100 µM)?
Its value is “did not affect”.

What about the IC50 at 24 h ([11]; H9c2, 24 h) of the same molecule?
The IC50 at 24 h was greater than 100 µM.

What about the IC50 at 48 h ([11]; H9c2, 48 h) of the same molecule?
The IC50 at 48 h was 57.2 ± 2.4 µM.

And the cell viability (H9c2 cardiomyocytes; H9c2, 24 h, 1.0 µM)?
Its cell viability is 101.9 ± 5.8 % of control.

What about the cell viability (H9c2 cardiomyocytes; H9c2, 24 h, 10.0 µM) of the same molecule?
Its cell viability is 101.9 ± 6.1 % of control.

And the cell viability (H9c2 cardiomyocytes; H9c2, 24 h, 100.0 µM)?
Its cell viability is 73.5 ± 4.4 % of control.

And the cell viability (H9c2 cardiomyocytes; H9c2, 48 h, 1.0 µM)?
The cell viability was 101.4 ± 5.6 % of control.

What about the cell viability (H9c2 cardiomyocytes; H9c2, 48 h, 10.0 µM) of the same molecule?
The cell viability was 102.6 ± 7.4 % of control.

And the cell viability (H9c2 cardiomyocytes; H9c2, 48 h, 100.0 µM)?
Its cell viability is 56.2 ± 0.9 % of control.
